Data as given in ChEMBL document CHEMBL4665751, “Discovery of Clinical Candidate (5-(3-(4-Chlorophenoxy)prop-1-yn-1-yl)-3-hydroxypicolinoyl)glycine, an Orally Bioavailable Prolyl Hydroxylase Inhibitor for the Treatment of Anemia” (J Med Chem, 2020).
Calls of active or inactive are those of the source. No cut-off for these calls is given here.

What was measured:
[1] = Genotoxicity in Salmonella typhimurium TA100 at 62.5 to 1000 ug incubated for 48 to 50 hrs in absence of S9 fraction by Ames test; assay type: toxicity, Salmonella enterica subsp. enterica serovar Typhimurium; conditions: in vivo; dose 62.5-1000 µg, time 48-50 hrs
[2] = Hepatotoxicity in male Sprague-Dawley rat assessed as change in albumin level at 15 to 200 mg/kg, po administered every alternate days for 2 weeks measured on day 14; assay type: toxicity, organism-based; conditions: in vivo, 336 h, dose 15-200 mg/kg, time 14 day
[3] = Acute toxicity in male Sprague-Dawley rat assessed as increase in weight of spleen to body weight at 15 to 200 mg/kg, po administered every alternate days for 2 weeks measured on day 14; assay type: organism-based; conditions: in vivo, 336 h, dose 15-200 mg/kg, time 14 day
[4] = Acute toxicity in Sprague-Dawley rat assessed as change in ratio of liver to body weight at 15 to 200 mg/kg, po administered every alternate days for 2 weeks measured on day 14; assay type: organism-based; conditions: in vivo, 336 h, dose 15-200 mg/kg, time 14 day
[5] = Acute toxicity in Sprague-Dawley rat assessed as change in ratio of brain to body weight at 15 to 200 mg/kg, po administered every alternate days for 2 weeks measured on day 14; assay type: organism-based; conditions: in vivo, 336 h, dose 15-200 mg/kg, time 14 day
[6] = Acute toxicity in Sprague-Dawley rat assessed as change in ratio of adrenal gland to body weight at 15 to 200 mg/kg, po administered every alternate days for 2 weeks measured on day 14; assay type: organism-based; conditions: in vivo, 336 h, dose 15-200 mg/kg, time 14 day
Mus musculus [7] = assay: Antianemic activity in cisplatin-induced C57BL/6 mouse anemia model assessed as increase in haemoglobin level administered orally every other day for 1 month; assay type: functional, organism-based; conditions: dose mg/kg 10-25, time 1.0 months
Cytochrome P450 3A4 [8] = molecular target: T1, Cytochrome P450 3A4 (Homo sapiens, UniProt P08684); assay: Inhibition of CYP3A4 (unknown origin) using midazolam as substrate preincubated for 5 mins followed by addition of NADPH measured after 20 mins by LC-MS/MS analysis; assay type: ADME
T1 sequence (P08684 whole entry): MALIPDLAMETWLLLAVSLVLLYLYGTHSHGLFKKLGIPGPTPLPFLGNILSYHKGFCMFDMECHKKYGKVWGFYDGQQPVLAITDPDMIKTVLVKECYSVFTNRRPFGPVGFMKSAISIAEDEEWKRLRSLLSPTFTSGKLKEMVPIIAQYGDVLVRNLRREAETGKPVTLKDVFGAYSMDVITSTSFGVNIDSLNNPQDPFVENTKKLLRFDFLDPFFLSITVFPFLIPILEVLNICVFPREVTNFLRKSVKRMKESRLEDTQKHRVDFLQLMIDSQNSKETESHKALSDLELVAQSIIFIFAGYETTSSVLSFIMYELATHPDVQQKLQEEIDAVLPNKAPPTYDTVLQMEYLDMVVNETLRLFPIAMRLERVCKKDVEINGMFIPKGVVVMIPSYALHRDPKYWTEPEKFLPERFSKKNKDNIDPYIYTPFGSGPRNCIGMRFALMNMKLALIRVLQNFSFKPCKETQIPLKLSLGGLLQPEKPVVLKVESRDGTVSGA

Cytochrome P450 3A4 [9] = molecular target: T1, Cytochrome P450 3A4; assay: Inhibition of CYP3A4 (unknown origin) using testosterone as substrate preincubated for 5 mins followed by addition of NADPH measured after 20 mins by LC-MS/MS analysis; assay type: ADME
Cytochrome P450 2D6 = Cytochrome P450 2D6 (Homo sapiens, UniProt P10635); assay: Inhibition of CYP2D6 (unknown origin) using dextromethorphan as substrate preincubated for 5 mins followed by addition of NADPH measured after 20 mins by LC-MS/MS analysis; assay type: ADME
Cytochrome P450 2D6, sequence (P10635 whole entry): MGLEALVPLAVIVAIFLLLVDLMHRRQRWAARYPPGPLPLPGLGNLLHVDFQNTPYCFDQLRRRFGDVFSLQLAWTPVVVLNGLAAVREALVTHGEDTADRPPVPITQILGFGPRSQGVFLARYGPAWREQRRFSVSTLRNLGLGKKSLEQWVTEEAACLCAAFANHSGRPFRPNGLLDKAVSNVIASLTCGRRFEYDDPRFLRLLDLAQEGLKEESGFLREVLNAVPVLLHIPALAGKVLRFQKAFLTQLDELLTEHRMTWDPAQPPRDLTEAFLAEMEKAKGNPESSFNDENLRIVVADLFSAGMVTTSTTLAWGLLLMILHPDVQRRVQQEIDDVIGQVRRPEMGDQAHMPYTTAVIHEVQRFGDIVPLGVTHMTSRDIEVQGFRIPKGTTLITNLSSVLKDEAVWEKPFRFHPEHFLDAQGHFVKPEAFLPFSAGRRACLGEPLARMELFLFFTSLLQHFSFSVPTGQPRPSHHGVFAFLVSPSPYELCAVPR

Cytochrome P450 2C9 = Cytochrome P450 2C9 (Homo sapiens, UniProt P11712); assay: Inhibition of CYP2C9 (unknown origin) using diclofenac as substrate preincubated for 5 mins followed by addition of NADPH measured after 20 mins by LC-MS/MS analysis; assay type: ADME
Cytochrome P450 2C9, sequence (P11712 whole entry): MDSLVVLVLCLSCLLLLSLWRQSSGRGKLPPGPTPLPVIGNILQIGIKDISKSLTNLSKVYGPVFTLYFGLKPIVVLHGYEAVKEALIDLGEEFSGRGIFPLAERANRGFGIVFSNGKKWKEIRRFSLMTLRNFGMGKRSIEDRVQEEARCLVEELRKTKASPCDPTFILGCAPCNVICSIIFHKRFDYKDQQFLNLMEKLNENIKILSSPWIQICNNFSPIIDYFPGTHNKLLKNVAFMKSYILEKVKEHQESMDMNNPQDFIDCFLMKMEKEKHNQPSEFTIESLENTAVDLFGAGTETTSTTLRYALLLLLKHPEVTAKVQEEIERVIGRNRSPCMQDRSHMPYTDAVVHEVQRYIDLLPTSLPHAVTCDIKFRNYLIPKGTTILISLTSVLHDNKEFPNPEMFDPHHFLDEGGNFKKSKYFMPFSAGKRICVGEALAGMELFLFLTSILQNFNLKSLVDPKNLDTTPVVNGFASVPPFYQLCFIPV

[10] = Half-life in rat hepatocytes at 100 uM incubated up to 120 mins by LC-MS/MS analysis; assay type: ADME, cell-based, Hepatocyte
[11] = Half-life in mouse liver microsome at 1 uM preincubated for 5 mins followed by NADPH addition measured up to 120 mins by LC-MS/MS analysis; assay type: ADME; conditions: liver microsomes, time <=125 min
[12] = Intrinsic clearance in dog liver microsome at 1 uM preincubated for 5 mins followed by NADPH addition measured up to 120 mins by LC-MS/MS analysis; assay type: ADME, Canis lupus familiaris; conditions: microsomes, 2 h, time <=125 min
[13] = Intrinsic clearance in mouse liver microsome at 1 uM preincubated for 5 mins followed by NADPH addition measured up to 120 mins by LC-MS/MS analysis; assay type: ADME; conditions: microsomes, 2 h, time <=125 min
[14] = Apparent volume of distribution in Beagle dog at 0.5 mg/kg, iv by LC-MS/MS analysis; assay type: ADME, organism-based, Canis lupus familiaris; conditions: in vivo, read-out: Vz
[15] = Apparent volume of distribution in Beagle dog at 2 mg/kg, ig by LC-MS/MS analysis; assay type: ADME, organism-based, Canis lupus familiaris; conditions: in vivo, po
[16] = Clearance in Beagle dog at 2 mg/kg, ig by LC-MS/MS analysis; assay type: ADME, organism-based, Canis lupus familiaris; conditions: in vivo, po
[17] = AUC (0 to infinity) in Beagle dog at 2 mg/kg, ig by LC-MS/MS analysis; assay type: ADME, organism-based, Canis lupus familiaris; set-up: route […], time infinity, dose 2 mg/kg; conditions: in vivo, po
[18] = AUC (0 to t) in Beagle dog at 2 mg/kg, ig by LC-MS/MS analysis; assay type: ADME, organism-based, Canis lupus familiaris; set-up: dose 2 mg/kg; conditions: in vivo, po
[19] = Cmax in Beagle dog at 2 mg/kg, ig by LC-MS/MS analysis; assay type: ADME, organism-based, Canis lupus familiaris; set-up: route […], dose 2 mg/kg; conditions: in vivo, po
[20] = Half-life in Sprague-Dawley rat at 1 mg/kg, iv by LC-MS/MS analysis; assay type: ADME, organism-based; conditions: in vivo
[21] = Clearance in Sprague-Dawley rat at 1 mg/kg, iv by LC-MS/MS analysis; assay type: ADME, organism-based; conditions: in vivo
[22] = AUC (0 to infinity) in Sprague-Dawley rat at 1 mg/kg, iv by LC-MS/MS analysis; assay type: ADME, organism-based; set-up: time infinity, route intravenous, dose 1 mg/kg; conditions: in vivo
[23] = AUC (0 to t) in Sprague-Dawley rat at 1 mg/kg, iv by LC-MS/MS analysis; assay type: ADME, organism-based; set-up: dose 1 mg/kg; conditions: in vivo
[24] = Apparent volume of distribution in Sprague-Dawley rat at 2 mg/kg, ig by LC-MS/MS analysis; assay type: ADME, organism-based; conditions: in vivo, po
[25] = Cmax in Sprague-Dawley rat at 2 mg/kg, ig by LC-MS/MS analysis; assay type: ADME, organism-based; set-up: route […], dose 2 mg/kg; conditions: in vivo, po
[26] = Tmax in Sprague-Dawley rat at 2 mg/kg, ig by LC-MS/MS analysis; assay type: ADME, organism-based; conditions: in vivo, po
[27] = In vivo inhibition of PHD2 in C57BL/6 mouse assessed as increase in EPO plasma level by measuring EPO level at 15 mg/kg, iv measured after 4 hrs by ELISA; assay type: functional
Mus musculus [28] = assay: In vivo inhibition of PHD2 in C57BL/6 mouse assessed as upregulation of EPO plasma level by measuring EPO level at 15 mg/kg, po measured after 4 hrs by ELISA; assay type: functional, organism-based
Mus musculus [29] = assay: In vivo inhibition of PHD2 in po dosed C57BL/6 mouse assessed as upregulation of EPO plasma level administered 4 times for 3 days by ELISA; assay type: functional, organism-based; conditions: dose mg/kg 5-50, time 3.0 day
Egl nine homolog 1 [30] = molecular target: T2, Egl nine homolog 1 (Homo sapiens, UniProt Q9GZT9); assay: Inhibition of PHD2 in human Hep3B cells assessed as increase in EPO expression measured after 24 hrs by ELISA; assay type: cell-based; conditions: dose microM 5-50, time 24.0 hrs
T2 sequence (Q9GZT9 2-426 limits assumed): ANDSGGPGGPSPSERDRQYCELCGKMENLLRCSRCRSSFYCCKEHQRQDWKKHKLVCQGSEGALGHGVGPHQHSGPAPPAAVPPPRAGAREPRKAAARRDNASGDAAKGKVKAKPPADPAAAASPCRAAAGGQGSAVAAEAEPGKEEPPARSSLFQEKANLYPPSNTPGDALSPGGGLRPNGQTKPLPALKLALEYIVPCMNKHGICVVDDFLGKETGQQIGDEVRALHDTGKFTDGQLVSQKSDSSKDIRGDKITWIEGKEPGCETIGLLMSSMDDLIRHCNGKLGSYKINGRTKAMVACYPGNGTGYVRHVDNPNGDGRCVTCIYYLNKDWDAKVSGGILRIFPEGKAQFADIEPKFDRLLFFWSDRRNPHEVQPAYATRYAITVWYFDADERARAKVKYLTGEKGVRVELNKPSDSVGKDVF

Egl nine homolog 1 [31] = molecular target: T2, Egl nine homolog 1; assay: Inhibition of PHD2 in human Hep3B cells assessed as upregulation of EPO mRNA expression measured after 10 hrs by Trizol reagent based qRT-PCR analysis; assay type: cell-based; conditions: dose microM 5-50, time 10.0 hrs
MCF7 = assay: Cytotoxicity against human MCF7 cells assessed as reduction in cell viability at 10 to 100 uM incubated for 72 hrs by MTT assay; assay type: cell-based; conditions: mcf7, 72 h, dose 10-100 µM
Homo sapiens = species: Homo sapiens; assay: Selectivity index, ratio of IC50 for KDM3A (unknown origin) in presence of peptide substrate incubated for 30 mins by alpha screen assay to IC50 for PHD2 (unknown origin) by O-phenyl enediamine(OPD) based fluorescence assay

O=C(O)CNC(=O)c1ncc(C#CCOc2ccc(Cl)cc2)cc1O [DDO-3055]
Activity [1]: Non-Toxic
Activity [2]: Non-Toxic
Activity [3]: Toxic
Activity [4]: Non-Toxic
Activity [5]: Non-Toxic
Activity [6]: Non-Toxic
Activity (Mus musculus [7]): Active
IC50 (Cytochrome P450 3A4 [8]): > 30 µM
IC50 (Cytochrome P450 3A4 [9]): > 30 µM
IC50 (Cytochrome P450 2D6): > 30 µM
IC50 (Cytochrome P450 2C9): > 30 µM
half-life at 100 µM [10]: 32.3 min
half-life at 1 µM [11]: > 139 min
CLH [12]: < 0.01 mL/min/kg
CLH [13]: < 0.01 mL/min/kg
Vd [14]: 3.34 L/kg
Vz [15]: 8.417 L/kg
CL/F [16]: 25.5 mL/min/kg
AUC(0-inf) [17]: 1370 ng·h/mL
AUC(0-t) [18]: 1360 ng·h/mL
Cmax [19]: 735 ng/mL
half-life [20]: 506 min
clearance [21]: 3.44 mL/min/kg
AUC(0-inf) [22]: 4860 ng·h/mL
AUC(0-t) [23]: 4710 ng·h/mL
Vz [24]: 3.409 L/kg
Cmax [25]: 1030 ng/mL
Tmax [26]: 37.8 min
Activity [27]: >1000 pg/mL
inhibition (Mus musculus [28]): Active
inhibition (Mus musculus [29]): Dose-dependent effect
inhibition (Egl nine homolog 1 [30]): Dose-dependent effect
inhibition (Egl nine homolog 1 [31]): Dose-dependent effect
Activity (MCF7): Non-Toxic
Ratio IC50 (Homo sapiens): > 1560
